Measured values as given in paper PMC9655618 (Cancers, 2022).
Where two headings read alike, the source gives them in different places.

Assays:
[1] = system: glucocorticoid receptor (GR)-dependent transcriptional activity, MDA-kb2 cells; test: GR-mediated transcription, luciferase reporter in MDA-kb2 cells (dexamethasone); settings: DEX 100 nM
[2] = system: T47D estrogen-depleted cells; test: E2-induced proliferation of estrogen-depleted cells (AUC of growth kinetics); assay type: cell-based; settings: for EC50: Homo sapiens, T47D, 240 h, read-out: AUC (%) EC50 (μM)
Method: To monitor long-term growth, human ER+ BC (T47-D, MCF-7, MCF-7/BUS), ER+ endometrial (Ishiwaka, High Point, NC, USA), or non-malignant breast (MCF-10A) cells were seeded at 3000–6000 cells per well. […] When indicated, cells were estrogen-deprived in a 10DCC-FBS supplemented medium for one week. […] Cytotoxicity was monitored by using YOYO-1 (Invitrogen, Waltham, MA, USA). Cell proliferation and cytotoxicity were monitored by sequential real-time microphotographs in an IncuCyte HD real-time imaging system (Essen BioScience, Hertfordshire, UK) for 5–10 days. The area under the curve (AUC) was then analyzed to know both the kinetics and dose-effect relationships. […] Next, cells were treated with VEH (0.05% DMSO) or test compounds for 5–10 days. Spheroid size and cell cytotoxicity were recorded with the Incucyte SX5 Live-Cell Analysis Instrument (Sartorius AG, Göttingen, Germany). To calculate the spheroid growth area, confluence measurements were taken considering the largest brightfield object area (µm^2). Cytotoxicity was monitored by using YOYO-1 (Essen Bioscience, Hertfordshire, UK).

[3] = system: alkaline phosphatase (ALP) activity in Ishikawa cells; test: Alkaline phosphatase assay; assay type: cell-based, human; settings: E2 10 nM
Method: Human endometrium cells ([…]) were cultured in MEM without phenol red with Earle's Salts culture, which was supplemented with estrogen-deprived 10 DCC-FBS du-ring 5 days. […] Cells were washed with ice-cold PBS, and Alkaline Phosphatase (ALP) activity was measured by using ALP Assay Kit (Abcam, Cambridge, MA, USA). The substrate p-nitrophenyl phosphate (pNPP) and the ALP enzyme were used to detect ALP activity by the analysis of the optical density at 405 nm in the iMark microplate Reader (Bio-Rad, Irvine, CA, USA). […] Protein concentration was quantified with the bicinchoninic acid assay (BCA) kit (Bio-Rad).

[4] = system: ERα-mediated transcription (3xERE-luciferase), T47D-KBluc cells; test: ER-dependent transcriptional activity, 3xERE-luciferase reporter in T47D-KBluc cells; settings: for effect on E2-induced luciferase activity: until dropping to 20% Emax
VERO cells = test: MTT cell viability assay; assay type: cell-based, monkey; settings: 72 h, 10%FBS growth media
Method: (§1) Straightforward, the tetrazolium salt 3-(4,5-methyltiazol-2yl-)-2,5diphenyl-tetrazolium bromide (MTT) (Applichen, Darmstadt, Germany) was added to cells, incubated for 2–4 h at 37 °C, and lysed in 10% SDS.

[5] = system: ERα, pS2 and PR mRNA in Ishikawa cells; test: Quantitative real-time PCR of ERα-regulated genes; assay type: cell-based, human; settings: 3 h pretreatment, E2 10 nM 24 h
Method: (§2) For gene expression analysis, MCF-7 and Ishikawa cells were deprived of steroid hormones by using a 10DCC-FBS medium for five days. Then, 1,500,000 cells/dish were seeded in 5DCC-FBS, followed by treatment with test compounds. Total RNA was isolated by using TRItidy G™ (Panreac Applichem ITW Reagents, Darmstadt, Germany). The concentration and purity of RNA were determined with a NanoDrop 1000 spectrophotometer (Wilmington, NC, USA). Then, 1 µg of total RNA was reversed and amplified with the iScriptTM kit (Bio-Rad) following the manufacturer’s protocol. SYBR Green PCR Master mix (Applied Biosystems, Bedford, MA, USA) reagent and exon-specific primers for ERα were used for Real-time quantitative PCR (qPCR). Gene expression was analyzed with an Mx3005P qPCR System (Agilent, Santa Clara, CA, USA), and cycle threshold values were calculated using MxPro qPCR Software (Agilent, CA, USA). Target gene expression was normalized to the expression of the 18S housekeeping gene. Data were expressed as relative expression values according to the comparative CT method for qPCR [42].

[6] = system: ERα, pS2 and PR mRNA in MCF-7 cells; test: Quantitative real-time PCR of ERα-regulated genes; assay type: cell-based, human; settings: 3 h pretreatment, E2 10 nM 24 h; 32 5 µM, 35 10 µM, ICI 0.1 µM, 4-OHTAM 1 µM
Method: as §2

T47D cells = test: MTT cell viability assay; assay type: cell-based, human; settings: 72 h, 10%FBS growth media
Method: Straightforward, the tetrazolium salt 3-(4,5-methyltiazol-2yl-)-2,5diphenyl-tetrazolium bromide (MTT) (Applichen, Darmstadt, Germany) was added to cells, incubated for 2–4 h at 37 °C, and lysed in 10% SDS. The mitochondrial metabolization of the tetrazolium salt was determined by the analysis of the optical density at 595 nm, measured with the iMark microplate Reader (Bio–Rad, Irvine, CA, USA).

Hs-578T cells = test: MTT cell viability assay; assay type: cell-based, human; settings: 72 h, 10%FBS growth media
Method: as §1

BT-549 cells = test: MTT cell viability assay; assay type: cell-based, human; settings: 10%FBS growth media
Method: as §1

MCF-7/BUS cells = test: MTT cell viability assay; assay type: cell-based, human; settings: 72 h, read-out: IC50 (μM) MCF-7/BUS
Method: as §1

Ishikawa cells = test: MTT cell viability assay; assay type: cell-based, human; settings: read-out: IC50 (μM) ISHIKAWA, 72 h, 10%FBS growth media
Method: as §1

MCF-10A cells = test: MTT cell viability assay; assay type: cell-based, human; settings: 72 h, 10%FBS growth media
Method: as §1

SK-BR-3 cells = test: MTT cell viability assay; assay type: cell-based, human; settings: 10%FBS growth media
Method: as §1

MDA-MB-231 cells = test: MTT cell viability assay; assay type: cell-based, human; settings: 10%FBS growth media
Method: as §1

MCF-7 cells = test: MTT cell viability assay; assay type: cell-based, human; settings: 10%FBS growth media
Method: as §1

## C[C@@H]1C[C@H]2[C@@H]3CCC4=CC(=O)C=C[C@]4(C)[C@@]3(F)[C@@H](O)C[C@]2(C)[C@@]1(O)C(=O)CO [DEX, dexamethasone, reference compound]
[1]
  maximal luciferase activity or Emax: 42.07 ± 14.33 fold induction

## C[C@]12CC[C@@H]3c4ccc(O)cc4CC[C@H]3[C@@H]1CC[C@@H]2O [E2, 17β-estradiol, reference compound]
[2]
  EC50: 0.0071 nM
[3]
  increase of ALP activity: 30 fold
[4]; E2+VEH
  maximal activity (Emax) reached by E2: 104.90 ± 2.01%
[4]; Homo sapiens, read-out: EC50 of E2, ER-dependent transcriptional activity, E2 alone (E2+VEH)
  EC50: 4.48 ± 0.42 pM
[4]; Homo sapiens, read-out: maximal activity (Emax) reached by E2, E2+VEH
  Emax: 99.8 ± 8.44%
[4]; induced by E2
  maximal luciferase activity or Emax: 15.19 ± 1.71 fold induction
[4]; read-out: EC50 of E2, ER-dependent transcriptional activity, E2 alone (E2+VEH)
  EC50: 4.57 ± 0.42 pM

## C[C@]12CC[C@@H]3c4ccc(O)cc4C[C@@H](CCCCCCCCC[S+]([O-])CCCC(F)(F)C(F)(F)F)[C@H]3[C@@H]1CC[C@@H]2O (stereo partly drawn) [ICI, ICI-182,780, reference compound]
[2]; presence of E2 (0.1 nM), 10 days
  IC50: 0.283 nM
VERO cells
  IC50: > 10 µM
[5]
  effect on E2-induced mRNA expression: blocked E2-induced mRNA levels of PR and pS2
[6]
  effect on E2-induced mRNA expression: blocked E2-induced mRNA levels of PR and pS2
T47D cells
  IC50: 14.9 ± 5.19 µM
Hs-578T cells
  IC50: > 25 µM
BT-549 cells; 72 h
  IC50: > 25 µM
MCF-7/BUS cells; 10%FBS growth media, MTT
  IC50: 0.0006 µM
Ishikawa cells
  IC50: > 10 µM
MCF-10A cells
  IC50: > 10 µM
SK-BR-3 cells; 72 h
  IC50: > 50 µM
MDA-MB-231 cells; 72 h
  IC50: > 25 µM
MCF-7 cells; 72 h
  IC50: 0.52 ± 0.16 µM
[4]; compounds 10 µM, 3 h pretreatment, then vehicle 16–24 h, relative to Emax of E2
  E/Emax (%) VEH: −9.15 ± 3.99%
[4]; read-out: IC50 (µM) on E2-induced luciferase activity, dose-response, 3 h pretreatment, then E2 0.1 nM 16–24 h
  IC50: 0.00019 µM
[4]; read-out: IC50 on E2-induced ER-dependent transcriptional activity, co-incubation with E2
  IC50: 0.0002 ± 8e-05 µM

## CCCc1c(-c2ccc(O)cc2)nn(-c2ccc(O)cc2)c1-c1ccc(O)cc1 [PPT, 1,3,5-tris(4-hydroxyphenyl)-4-propyl-1H-pyrazole, reference compound]
[2]
  EC50: 0.157 nM

## O=C1C(c2ccccc2)=CC(O)(c2ccccc2)N1C1CCCCC1 (stereo not drawn) [compound 4, 1-cyclohexyl-5-hydroxy-3,5-diphenyl-1H-pyrrol-2(5H)-one]
VERO cells; Primates, Vero
  IC50: > 25 µM
T47D cells; Homo sapiens, T47D
  IC50: > 10 µM
Hs-578T cells; Homo sapiens, Hs-578T
  IC50: > 10 µM
Ishikawa cells; Homo sapiens, Ishikawa
  IC50: > 10 µM
MCF-10A cells; Homo sapiens, MCF-10A
  IC50: 7.17 ± 2.07 µM
SK-BR-3 cells; Homo sapiens, SK-BR-3, 72 h
  IC50: > 10 µM
MDA-MB-231 cells; Homo sapiens, MDA-MB-231, 72 h
  IC50: > 10 µM
MCF-7 cells; Homo sapiens, MCF7, 72 h
  IC50: > 10 µM
[4]
  effect on E2-induced luciferase activity: reduced E2-induced luciferase activity

## COc1ccc(C2(O)C=C(c3ccccc3)C(=O)N2Cc2ccccc2)cc1 (stereo not drawn) [compound 8, 1-benzyl-5-hydroxy-5-(4-methoxyphenyl)-3-phenyl-1H-pyrrol-2(5H)-one]
[4]
  effect on E2-induced luciferase activity: reduced E2-induced luciferase activity

## COc1ccc(N2C(=O)C(c3ccccc3)=CC2(O)c2ccc(OC)cc2)cc1 (stereo not drawn) [compound 9, 5-hydroxy-1,5-bis(4-methoxyphenyl)-3-phenyl-1H-pyrrol-2(5H)-one]
T47D cells; Homo sapiens, T47D
  IC50: > 10 µM
Hs-578T cells; Homo sapiens, Hs-578T
  IC50: > 10 µM
BT-549 cells; Homo sapiens, BT-549, 72 h
  IC50: > 10 µM
MCF-7/BUS cells; Homo sapiens, MCF7/BUS
  IC50: > 10 µM
SK-BR-3 cells; Homo sapiens, SK-BR-3, 72 h
  IC50: > 10 µM
MDA-MB-231 cells; Homo sapiens, MDA-MB-231, 72 h
  IC50: > 10 µM
MCF-7 cells; Homo sapiens, MCF7, 72 h
  IC50: > 10 µM

## COc1ccc(C2=CC(O)(c3ccccc3)N(C3CCCCC3)C2=O)cc1F (stereo not drawn) [compound 16, 1-cyclohexyl-3-(3-fluoro-4-methoxyphenyl)-5-hydroxy-5-phenyl-1H-pyrrol-2(5H)-one]
T47D cells; Homo sapiens, T47D
  IC50: > 10 µM
Hs-578T cells; Homo sapiens, Hs-578T
  IC50: > 10 µM
BT-549 cells; Homo sapiens, BT-549, 72 h
  IC50: > 10 µM
MCF-7/BUS cells; Homo sapiens, MCF7/BUS
  IC50: > 10 µM
Ishikawa cells; Homo sapiens, Ishikawa
  IC50: > 10 µM
SK-BR-3 cells; Homo sapiens, SK-BR-3, 72 h
  IC50: > 10 µM
MDA-MB-231 cells; Homo sapiens, MDA-MB-231, 72 h
  IC50: > 10 µM
MCF-7 cells; Homo sapiens, MCF7, 72 h
  IC50: > 10 µM
[4]; 10 μM, absence of E2
  estrogenic effect on ER-dependent transcriptional activity: partial induction of ER-dependent transcriptional activity

## O=C1C(c2ccc3c(c2)OCO3)=CC(O)(c2ccccc2)N1Cc1ccccc1 (stereo not drawn) [compound 26, 3-(benzo[d][1,3]dioxol-5-yl)-1-benzyl-5-hydroxy-5-phenyl-1H-pyrrol-2(5H)-one]
T47D cells; Homo sapiens, T47D
  IC50: > 10 µM
Hs-578T cells; Homo sapiens, Hs-578T
  IC50: > 10 µM
Ishikawa cells; Homo sapiens, Ishikawa
  IC50: 10.1 ± 0.11 µM
SK-BR-3 cells; Homo sapiens, SK-BR-3, 72 h
  IC50: > 10 µM
MDA-MB-231 cells; Homo sapiens, MDA-MB-231, 72 h
  IC50: 9.71 ± 0.3 µM
MCF-7 cells; Homo sapiens, MCF7, 72 h
  IC50: > 10 µM
[4]
  effect on E2-induced luciferase activity: reduced E2-induced luciferase activity

## COc1ccc(N2C(=O)C(c3cccc([N+](=O)[O-])c3)=CC2(O)c2cccc(OC)c2)cc1 (stereo not drawn) [compound 38, 5-hydroxy-5-(3-methoxyphenyl)-1-(4-methoxyphenyl)-3-(3-nitrophenyl)-1H-pyrrol-2(5H)-one]
VERO cells; Primates, Vero
  IC50: > 25 µM
T47D cells; Homo sapiens, T47D
  IC50: > 10 µM
Hs-578T cells; Homo sapiens, Hs-578T
  IC50: > 10 µM
Ishikawa cells; Homo sapiens, Ishikawa
  IC50: > 10 µM
MCF-10A cells; Homo sapiens, MCF-10A
  IC50: > 10 µM
SK-BR-3 cells; Homo sapiens, SK-BR-3, 72 h
  IC50: > 10 µM
MDA-MB-231 cells; Homo sapiens, MDA-MB-231, 72 h
  IC50: > 10 µM
MCF-7 cells; Homo sapiens, MCF7, 72 h
  IC50: > 10 µM
[4]
  effect on E2-induced luciferase activity: reduced E2-induced luciferase activity

## COc1ccc(C2=CC(O)(c3cccc([N+](=O)[O-])c3)N(Cc3ccccc3)C2=O)cc1 (stereo not drawn) [compound 40, 1-benzyl-5-hydroxy-3-(4-methoxyphenyl)-5-(3-nitrophenyl)-1H-pyrrol-2(5H)-one]
[4]
  effect on E2-induced luciferase activity: reduced E2-induced luciferase activity

## COc1cccc(C2=CC(O)(c3ccc([N+](=O)[O-])cc3)N(Cc3ccccc3)C2=O)c1 (stereo not drawn) [compound 46, 1-benzyl-5-hydroxy-3-(3-methoxyphenyl)-5-(4-nitrophenyl)-1H-pyrrol-2(5H)-one]
[4]
  effect on E2-induced luciferase activity: reduced E2-induced luciferase activity

## COc1ccc(N2C(=O)C(c3ccccc3OC)=CC2(O)c2ccc([N+](=O)[O-])cc2)cc1 (stereo not drawn) [compound 50, 5-hydroxy-3-(2-methoxyphenyl)-1-(4-methoxyphenyl)-5-(4-nitrophenyl)-1H-pyrrol-2(5H)-one]
SK-BR-3 cells; Homo sapiens, SK-BR-3, 72 h
  IC50: > 10 µM
MCF-7 cells; Homo sapiens, MCF7, 72 h
  IC50: 6.17 ± 2.66 µM
[4]
  effect on E2-induced luciferase activity: reduced E2-induced luciferase activity
